Each structure is given as a SMILES string.

The experiment deals with T1, human M4 receptor (Homo sapiens, UniProt P08173).
T1 construct: expressed in transfected cells; host or cells: CHO cells
T1 sequence (P08173 1-479): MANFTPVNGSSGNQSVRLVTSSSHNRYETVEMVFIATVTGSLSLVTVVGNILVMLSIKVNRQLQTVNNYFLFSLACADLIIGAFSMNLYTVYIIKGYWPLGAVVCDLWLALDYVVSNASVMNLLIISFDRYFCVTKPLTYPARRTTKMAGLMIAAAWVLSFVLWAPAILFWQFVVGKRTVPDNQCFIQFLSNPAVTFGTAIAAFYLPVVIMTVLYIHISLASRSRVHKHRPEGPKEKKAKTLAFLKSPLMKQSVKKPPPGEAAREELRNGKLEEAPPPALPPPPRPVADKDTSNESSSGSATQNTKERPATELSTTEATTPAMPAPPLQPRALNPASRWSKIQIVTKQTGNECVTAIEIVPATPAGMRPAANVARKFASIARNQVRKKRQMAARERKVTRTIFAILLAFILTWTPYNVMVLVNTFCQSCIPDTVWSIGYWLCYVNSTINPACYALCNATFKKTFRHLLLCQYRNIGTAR
The experiment can be described thus: Radioligand ([3H]N-methylscopolamine) binding assay, membranes from CHO cells expressing human M4 receptor. The following applies: Ki against human M4 receptor; membranes from CHO cells; tritiated N-methylscopolamine 1.5 nM; read-out: K. An outline of the steps: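 Ki values derive from displacement of tritiated N-methylscopolamine (1.5 nM) from human M4 receptor in CHO membranes. Membranes, radioligand and twelve-point compound series were incubated together at 37 °C for 90 minutes in pH 7.4 HEPES/NaCl/MgCl2/EDTA buffer. Rapid vacuum filtration over polyethylenimine-pretreated filters was followed by radioactivity counting.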
Turning to `C[C@@H]1CN(c2ncc(C(F)(F)F)cn2)C[C@@H](C)N1C(=O)OC1CC2(C1)CN(Cc1ccccc1)C2` [Compound 139, 2-Benzyl-2-azaspiro[3.3]heptan-6-yl (2R,6R)-2,6-dimethyl-4-[5-(trifluoromethyl)pyrimidin-2-yl]piperazine-1-carboxylate], the Ki is less than 10 nM.
The figure for `C[C@@H]1CN(c2ncc(C(F)(F)F)cn2)C[C@H](C)N1C(=O)NC1CC2(C1)CN(Cc1ccc3occc3c1)C2` [Compound 298, (2R,6S)-N-[2-(1-benzofuran-5-ylmethyl)-2-azaspiro[3.3]heptan-6-yl]-2,6-dimethyl-4-[5-(trifluoromethyl)pyrimidin-2-yl]piperazine-1-carboxamide] is less than 10 nM; for `N#Cc1cnc(N2CC3CC(C2)N3C(=O)OC2CC3(C2)CN(Cc2ccccc2)C3)cn1` [Compound 111, 2-benzyl-2-azaspiro[3.3]heptan-6-yl 3-(5-cyanopyrazin-2-yl)-3,6-diazabicyclo[3.1.1]heptane-6-carboxylate] it is 100 to 1000 nM.
As to `C[C@@H]1CN(c2ncc(C(F)(F)F)cn2)C[C@@H](C)N1C(=O)OC1(C(F)F)CC2(CN(Cc3ccccc3)C2)C1` [Compound 344, 2-benzyl-6-(difluoromethyl)-2-azaspiro[3.3]heptan-6-yl (2R,6R)-2,6-dimethyl-4-[5-(trifluoromethyl)pyrimidin-2-yl]piperazine-1-carboxylate], the Ki fell in the range of 10 to 100 nM.
Consider `C[C@@H]1CN(c2ccc(C(F)(F)F)cc2)C[C@H](C)N1C(=O)OC1CC2(C1)CN(Cc1ccccc1)C2` [Compound 514, 2-benzyl-2-azaspiro[3.3]heptan-6-yl (2R,6S)-2,6-dimethyl-4-[4-(trifluoromethyl)phenyl]pipera-zine-1-carboxylate], for which the Ki was less than 10 nM.
The figure for `C[C@@H]1CN(c2ncc(C(=O)N(C)C)cn2)C[C@H](C)N1C(=O)OC1CC2(C1)CN(Cc1ccccc1)C2` [Compound 489, 2-benzyl-2-azaspiro[3.3]heptan-6-yl (2R,6S)-4-[5-(dimethylcarbamoyl)pyimidin-2-yl]-2,6-dimethylpiperazine-1-carboxylate] is 100 to 1000 nM; for `C[C@@H]1CN(c2ncc(C(F)(F)F)cn2)C[C@H](C)N1C(=O)OC1CC2(C1)CN(Cc1ccc(F)cc1)C2` [Compound 455, 2-[(4-fluorophenyl)methyl]-2-azaspiro[3.3]heptan-6-yl (2R,6S)-2,6-dimethyl-4-[5-(trifluoromethyl)pyrimidin-2-yl]piperazine-1-carboxylate] it is 10 to 100 nM; for `C[C@@H]1CN(c2cnc3ccccc3n2)C[C@H](C)N1C(=O)OC1CC2(C1)CN(Cc1ccccc1)C2` [Compound 172, 2-benzyl-2-azaspiro[3.3]heptan-6-yl (2R,6S)-2,6-dimethyl-4-(quinoxalin-2-yl)piperazine-1-carboxylate] it is 10 to 100 nM.
For the compound `C[C@@H]1CN(c2nc3ccc(C(F)(F)F)cc3s2)C[C@H](C)N1C(=O)NC1CC2(C1)CN(Cc1ccccc1)C2` [Compound 216, (2R,6S)-N-{2-benzyl-2-azaspiro[3.3]heptan-6-yl}-2,6-dimethyl-4-[6-(trifluoromethyl)-1,3-benzothiazol-2-yl)piperazine-1-carboxamide], the Ki is less than 10 nM.
Under `C[C@@H]1CN(c2nc3ccc(C(F)(F)F)cc3s2)C[C@@H](C)N1C(=O)OC1CC2(C1)CN(Cc1ccc(F)cc1)C2` [Compound 385, 2-[(4-fluorophenyl)methyl]-2-azaspiro[3.3]heptan-6-yl (2R,6R)-2,6-dimethyl-4-[6-(trifluoromethyl)-1,3-benzothiazol-2-yl]piperazine-1-carboxylate] stands 10 to 100 nM; under `C[C@@H]1CN(c2nc3ccc(F)cc3s2)CCN1C(=O)NC1CC2(C1)CN(Cc1ccccc1)C2` [Compound 234, (2R)-N-{2-benzyl-2-azaspiro[3.3]heptan-6-yl}-4-(6-fluoro-1,3-benzothiazol-2-yl)-2-methylpiperazine-1-carboxamide], less than 10 nM.

The values above are taken from patent publication US20230129359A1, “MUSCARINIC RECEPTOR 4 ANTAGONISTS AND METHODS OF USE” (Neurocrine Biosciences, Inc., priority 2020, published 2023).
